The text below walks through data of PMC10216341 (Brain Sciences, 2023).

Where two headings read alike, the source gives them in different places.

The subject of data set [1] is differentiated SH-SY5Y cells. The data set is described as follows: Neurite extension (neurite length) in differentiated cells, microscopy. Type of data set: cell-based, human. The settings on record: 24 h, read-out: Neurite Retraction IC50. The method, then:
SH-SY5Y cells were seeded at 5 × 10^5 cells/well in 12-well poly-D-Lysine coated plates and grown for 24 h to ensure cell adhesion. Cells were then treated with pesticides in differentiation media for 24 h. Cell images were captured using a phase contrast microscope (Olympus, DP70, London, UK). Cells were considered differentiated if each neuronal cell contained at least one process that was longer than its cell body. The neurite length from 100 randomly chosen cells were measured in five selected regions of each well using the neurite tracer tool in Image J (Image J 1.49k, National Institute of Health, Bethesda, MD, USA). Results are expressed as mean percentage neurite length (±SEM) relative to vehicle-control treated cells.

The conditions of data set [2]: WHO class; cited from earlier work.
The subject of another data set is rat. The settings on record: cited from earlier work.
The test system of data set [3] is SH-SY5Y cells. In words: MTT cell viability assay. The class given is cell-based, human. The settings on record: read-out: MTT IC50. The method, then: (§1) SH-SY5Y cells were differentiated as described by Encinas et al. (2000) after seeding onto either poly-D-Lysine hydrobromide (PDL) (50 µg/mL) (P6407, Sigma-Aldrich, Poole, UK) -coated cell cultureware or in 96-well microtitre plates (6005649, Perkin Elmer, Groningen, The Netherlands) with 10% FBS media and after settling, cells were grown to 60% confluency.
In brief, 3 × 10^4 cells/well were grown in laminin-coated 96-well clear-bottom tissue culture plates. Undifferentiated cells were challenged with each agent for 24 h within the concentration ranges specified by diluting each compound in the cell culture medium. Differentiated cells that were grown on 96-well plates were treated with each compound diluted in cell culture medium. After incubation with the compounds, spent media was removed and then replaced with the corresponding media for differentiated or undifferentiated cells containing 10% of 5 mg/mL MTT and incubated for 4 h. Wells that only received 10% MTT and respective growth media served as background controls. The formazan crystals generated were suspended in 1:1 DMSO and isopropanol solution and the absorbance of wells read at 570 nm using a spectrophotometer (Multiskan Spectrum, Thermo Electron Corporation, Vantaa, Finland). Experiments were performed in triplicates from which an average was taken, and blank (negative control) values were subtracted. Cell viability was expressed as a percentage of survival […] from at least five repeated experiments. The concentration of agent producing a 50% inhibition of cell viability (IC50 values) was obtained from the concentration-response curves and expressed as means ± standard error of the mean (SEM).

The subject of data set [4] is SH-SY5Y cells. In words: Intracellular ATP levels, luminescence assay. The class given is cell-based, human. As for the experimental part: as §1
Undifferentiated and differentiated cells that were grown in 6-well plates were treated with MTT cell viability inhibition concentrations that produced 10, 20, 50, and an 80% loss of cell viability. Intracellular ATP levels were quantified using an ATP luminescence assay kit (ATP Bioluminescence Assay Kit CLS II (product 11 699 695 001, Roche, Germany), according to the manufacturer’s protocol. ATP standards were prepared according to the kit protocol across a concentration range of 1 × 10^−4 to 1 × 10^−10 M and after the addition of luciferase reagent to each well, the luminescence was measured using a luminometric plate reader (Thermo Fisher Scientific, Fluoroskan Ascent FC, Vantaa, Finland) using an integration time of 1 s. The ATP content in control and pesticide-treated samples were interpolated from the ATP standard curve. Experiments were performed in triplicates and five individual experiments were undertaken from which a mean was calculated, with blank values subtracted.

In data set [5] the target is T1, acetylcholinesterase (AChE) (Homo sapiens, UniProt P22303).
T1 construct: endogenous in cells; host or cells: SH-SY5Y human neuroblastoma cells (ECACC-94030304), undifferentiated and differentiated
T1 sequence (P22303 32-614): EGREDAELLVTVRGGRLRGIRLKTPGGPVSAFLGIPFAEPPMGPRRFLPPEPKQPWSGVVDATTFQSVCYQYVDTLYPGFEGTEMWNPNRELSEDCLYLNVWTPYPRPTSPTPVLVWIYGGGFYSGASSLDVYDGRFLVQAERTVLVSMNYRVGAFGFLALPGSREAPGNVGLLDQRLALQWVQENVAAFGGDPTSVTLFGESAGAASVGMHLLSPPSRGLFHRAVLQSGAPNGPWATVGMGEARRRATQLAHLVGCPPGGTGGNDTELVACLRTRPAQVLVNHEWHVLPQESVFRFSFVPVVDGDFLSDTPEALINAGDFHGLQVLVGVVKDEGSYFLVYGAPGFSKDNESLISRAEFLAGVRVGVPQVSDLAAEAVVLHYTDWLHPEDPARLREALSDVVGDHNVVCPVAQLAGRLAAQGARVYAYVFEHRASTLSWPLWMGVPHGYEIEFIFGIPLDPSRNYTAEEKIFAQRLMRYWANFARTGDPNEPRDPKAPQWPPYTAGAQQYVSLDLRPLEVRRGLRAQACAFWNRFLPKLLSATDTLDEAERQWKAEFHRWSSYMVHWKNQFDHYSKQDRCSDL
The data set is described as follows: cell-based. As to conditions: 24 h.
Experimental: Inhibition of AChE was assessed using an Ellman’s assay modified for harvested cells [32, 33]. […] The supernatant was discarded, and the resultant cell pellet was retained and resuspended in 1 mL of potassium phosphate buffer pH 8.0. A volume of 100 µL was then assayed as a 1:1 mixture with ATCI and DTNB. […] Since the absorbance background increased with time, the associated absorbance of buffer blanks was subtracted at each time point for each data point. Corrected absorbance readings for each treatment were normalized to the means of the vehicle control and AChE activity presented as a percentage relative to the vehicle control.

Data set [6] deals with SH-SY5Y cells. In words: Lactate dehydrogenase (LDH) assay, extracellular LDH. Type of data set: cell-based, human. The method, then:
as §1
The production of active extracellular LDH in response to pesticide exposures was measured using an LDH assay kit (ab65393, Abcam, Cambridge, UK) according to the manufacturer’s instructions. After agent treatment (1–200 µM, or vehicle control), 50 µL of spent media was removed and LDH activity was measured spectrophotometrically at 450 nm (Multiskan Spectrum, Thermo Electron Corporation, Finland). Assays were performed in triplicates, with blank values from a negative control subtracted from test values. IC50 values were obtained from the concentration-response curves and expressed as means ± standard error of the mean (SEM). Experiments were performed with an n-number of at least five.

[7] abbreviates: Homo sapiens, differentiated SH-SY5Y cells.

`COP(=O)(OC)SCn1c(=O)oc2cc(Cl)cnc21` [AZO, 6-chloro-3-(dimethoxyphosphorylsulfanylmethyl)-[1,3]oxazolo[4,5-b]pyridin-2-one]: the IC50 in data set [1] (Homo sapiens, SH-SY5Y) turned out to be 16.5 ± 1.3 µM; with SH-SY5Y cells [3] (Homo sapiens, SH-SY5Y, 24 h) it was 26.9 ± 1.1 µM; with SH-SY5Y cells [3] (Homo sapiens, SH-SY5Y), 19.6 ± 0.5 µM; in the data set on SH-SY5Y cells [4] (Homo sapiens, SH-SY5Y, read-out: ATP IC50, differentiated SH-SY5Y cells), 20.7 ± 0.1 µM; in the data set on SH-SY5Y cells [4] (Homo sapiens, SH-SY5Y, read-out: ATP IC50, undifferentiated SH-SY5Y cells), 26 ± 0.6 µM; in data set [5] (AChE Inhibition IC50, differentiated SH-SY5Y cells), 220 nM. The 50% inhibitory concentration (IC50) in data set [5] (AChE Inhibition IC50, undifferentiated SH-SY5Y cells) stood at 300 nM; in the data set with SH-SY5Y cells [6] (Homo sapiens, SH-SY5Y, 24 h, read-out: LDH IC50, differentiated SH-SY5Y cells, 24 h exposure), 20.5 ± 1.6 µM; in the data set on SH-SY5Y cells [6] (Homo sapiens, SH-SY5Y, 24 h, read-out: LDH IC50, undifferentiated SH-SY5Y cells, 24 h exposure), 26.5 ± 0.9 µM. In data set [2], the hazard classification result was “Class II”. Also, in the data set with rat, the “rat oral LD50” value is on record as 1180 mg/kg.
Consider `CNC(=O)O/N=C/C(C)(C)SC` [Aldicarb, [(E)-(2-methyl-2-methylsulfanylpropylidene)amino] N-methylcarbamate], for which the IC50 in data set [1] (setting [7]) is 30.2 ± 4.7 µM; with SH-SY5Y cells [3] (setting [7]) it was 31.6 ± 2.2 µM; in the data set with SH-SY5Y cells [3] (Homo sapiens, undifferentiated SH-SY5Y cells, 24 h exposure), 39.6 ± 3.6 µM; in the data set with SH-SY5Y cells [4] (Homo sapiens, SH-SY5Y, differentiated SH-SY5Y cells, read-out: ATP IC50), 32.4 ± 1.2 µM; with SH-SY5Y cells [4] (Homo sapiens, SH-SY5Y, undifferentiated SH-SY5Y cells, read-out: ATP IC50), 40.2 ± 2.9 µM; in the data set with SH-SY5Y cells [6] (Homo sapiens, SH-SY5Y, 24 h, differentiated SH-SY5Y cells, 24 h exposure, read-out: LDH IC50) it was 29.9 ± 1.6 µM. Also, the concentration for half-maximal inhibition (IC50) in the data set with SH-SY5Y cells [6] (Homo sapiens, SH-SY5Y, 24 h, undifferentiated SH-SY5Y cells, 24 h exposure, read-out: LDH IC50) was 35.4 ± 1.4 µM. Moreover, in data set [2], the hazard classification result is listed as “Class Ia”. For the same molecule, the “rat oral LD50” value with rat is given as 0.65 mg/kg.
`CCOP(=O)(OCC)Oc1nc(Cl)c(Cl)cc1Cl` [CPO, diethyl (3,5,6-trichloropyridin-2-yl) phosphate]: the half-inhibitory concentration (IC50) was determined as 10.8 ± 0.1 µM in data set [1] (differentiated SH-SY5Y cells); 17.3 ± 0.9 µM in the data set on SH-SY5Y cells [3] (differentiated SH-SY5Y cells); 29.4 ± 2.1 µM in the data set with SH-SY5Y cells [3] (undifferentiated SH-SY5Y cells, 24 h exposure); 18.8 ± 0.1 µM in the data set with SH-SY5Y cells [4] (differentiated SH-SY5Y cells, read-out: ATP IC50); 29.6 ± 2.1 µM with SH-SY5Y cells [4] (undifferentiated SH-SY5Y cells, read-out: ATP IC50); 17.2 ± 1.1 µM with SH-SY5Y cells [6] (differentiated SH-SY5Y cells, 24 h exposure, read-out: LDH IC50). For the same molecule, the IC50 in the data set on SH-SY5Y cells [6] (undifferentiated SH-SY5Y cells, 24 h exposure, read-out: LDH IC50) was 27.8 ± 2.1 µM.
Consider `CCOP(=S)(OCC)Oc1nc(Cl)c(Cl)cc1Cl` [chlorpyrifos, Chlorpyrifos], for which, in the data set with rat, the “rat oral LD50” value is recorded as 82 mg/kg.
